The record followed here is ChEMBL document CHEMBL1201862, “PubChem BioAssay data set” (2004).

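Each compound was tested at five concentrations against cells in 96-well plates for 48 hours. Here, GI50 denotes the concentration required for 50% inhibition of growth.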 The source made the active and inactive calls. Rule as the data show it: active = GI50 up to about 1.1 µM and inactive = higher. Where a SMILES comes first, the peptide text is derived from it. [ ]: non-standard residue; d: D form. The star is where a group is joined. Phe(4-NO2) = N[CH](Cc1ccc([N+](=O)[O-])cc1)C(=O)O; Boc = CC(C)(C)OC(=O)*; OtBu = CC(C)(C)O*

Some test systems named below: NCI-H522; A549; IGROV-1; COLO 205; SK-MEL-2; M14; SF-539; TK-10; U-251; SNB-78; SR; SF-268; SNB-75; DLD-1; UACC-257; DU-145; Hs-578T; T47D; MDA-MB-231.
What all share (experiment): NCI-60 cell line screen, 48 h

As to `COc1ccc(CNc2cnc3cc(N)ccc3n2)cc1`, the GI50 in the experiment with NCI-H522, with A549, with IGROV-1, in the experiment on COLO 205, in the experiment on SK-MEL-2 and in the experiment with M14 was > 100 µM (inactive) each time. Moreover, the GI50 was > 100 µM (inactive) with SF-539; > 100 µM (inactive) in the experiment with TK-10; > 100 µM (inactive) in the experiment with U-251; > 100 µM (inactive) in the experiment with SNB-78; 55.3 µM (inactive) in the experiment with SR; > 100 µM (inactive) in the experiment on SF-268. For the same compound, the GI50 in the experiment with SNB-75 was 52.6 µM (inactive).
Consider `O=[N+]([O-])c1c(/C=N/Nc2ccccc2)oc(-c2ccc3c(c2)OCO3)c1-c1ccc2c(c1)OCO2`, for which the GI50 in the experiment on NCI-H522 is 27 µM (inactive); with A549, 11 µM (inactive); with DLD-1, 5.73 µM (inactive); in the experiment on IGROV-1, 6.14 µM (inactive); in the experiment on COLO 205, 18.2 µM (inactive); in the experiment on SK-MEL-2 it was 2.49 µM (inactive). Further, the GI50 in the experiment on M14 was 3 µM (inactive); in the experiment with SF-539, 3.16 µM (inactive); in the experiment with TK-10, 19 µM (inactive); in the experiment on SR, 1.54 µM (inactive); with SF-268, 3.93 µM (inactive); with SNB-75, 23.4 µM (inactive). Moreover, in the experiment with UACC-257, the GI50 was 30.3 µM (inactive).
On to `CC(C)/C(Cl)=N/OC(=O)Nc1ccc(Br)cc1`, for which the GI50 in the experiment with NCI-H522 was 1.52 µM (inactive); in the experiment on DU-145 it was 13.7 µM (inactive); in the experiment on A549, 18.2 µM (inactive); in the experiment with Hs-578T, 21.7 µM (inactive); with IGROV-1, 13 µM (inactive); with COLO 205 it was 1.88 µM (inactive). The GI50 was 16.8 µM (inactive) in the experiment with SK-MEL-2; 2.67 µM (inactive) in the experiment with T47D; 16.1 µM (inactive) in the experiment with MDA-MB-231; 2.78 µM (inactive) in the experiment with M14; 13.2 µM (inactive) in the experiment with SF-539; 13.2 µM (inactive) in the experiment with TK-10. Also, the GI50 in the experiment on U-251 was 18.7 µM (inactive); in the experiment with SR, 1.83 µM (inactive); in the experiment on SF-268, 17.1 µM (inactive); with SNB-75 it was 18.6 µM (inactive); in the experiment with UACC-257, 15.2 µM (inactive).
On to `CCN(CC)CCCNc1nncc2cc3c([nH]c4ccc(OC)cc43)c(C)c12`, for which the GI50 with NCI-H522 is 2.7 µM (inactive); in the experiment on DU-145 it was 4.03 µM (inactive); with A549, 9.82 µM (inactive); in the experiment on Hs-578T it was 10.4 µM (inactive); in the experiment on IGROV-1, 4.14 µM (inactive); in the experiment with COLO 205, 7.26 µM (inactive). Further, the GI50 in the experiment with SK-MEL-2 was 17.7 µM (inactive); in the experiment on T47D it was 11.8 µM (inactive); in the experiment on MDA-MB-231, 7.41 µM (inactive); in the experiment with M14, 12.9 µM (inactive); in the experiment on SF-539, 3.44 µM (inactive); in the experiment on TK-10, 15.3 µM (inactive). Further, the GI50 was 3.69 µM (inactive) with U-251; 4.63 µM (inactive) in the experiment on SR; 6.65 µM (inactive) in the experiment on SF-268; 9.59 µM (inactive) in the experiment with SNB-75; 17.6 µM (inactive) in the experiment with UACC-257.
On to `COC(=O)C(Cc1ccc([N+](=O)[O-])cc1)NC(=O)C(CC(=O)OC(C)(C)C)NC(=O)OC(C)(C)C` (stereo not given) (Boc-Asp(OtBu)-[Phe(4-NO2)]-OMe; configuration not given here), for which the GI50 was 63.5 µM (inactive) in the experiment with NCI-H522; > 100 µM (inactive) with DU-145; > 100 µM (inactive) in the experiment on A549; 20.1 µM (inactive) with Hs-578T; > 100 µM (inactive) in the experiment on IGROV-1; 30.2 µM (inactive) with COLO 205. For the same compound, the GI50 in the experiment with SK-MEL-2 was > 100 µM (inactive); in the experiment on T47D it was > 100 µM (inactive); in the experiment with MDA-MB-231, 25.8 µM (inactive); in the experiment with M14 it was 29.4 µM (inactive); in the experiment on SF-539, > 100 µM (inactive); in the experiment on TK-10 it was > 100 µM (inactive). The GI50 was > 100 µM (inactive) in the experiment on U-251; 21.4 µM (inactive) with SR; > 100 µM (inactive) in the experiment with SF-268; 55.5 µM (inactive) in the experiment on SNB-75; > 100 µM (inactive) in the experiment with UACC-257.
Take `CC1=NN(c2nc(N)nc(CBr)n2)C(C)(C)C1`: the GI50 with NCI-H522 is 0.234 µM (active); in the experiment with DU-145 it was 3.3 µM (inactive); in the experiment with A549, 12.6 µM (inactive); in the experiment on Hs-578T it was 13.9 µM (inactive); with IGROV-1, 1.49 µM (inactive); in the experiment with COLO 205 it was 3.03 µM (inactive). Besides, the GI50 is 12.9 µM (inactive) with SK-MEL-2; 5.97 µM (inactive) with T47D; 7.18 µM (inactive) in the experiment on MDA-MB-231; 5.79 µM (inactive) with M14; 2.3 µM (inactive) in the experiment with SF-539; 4.25 µM (inactive) in the experiment with TK-10. Also, the GI50 with U-251 is 6.76 µM (inactive); in the experiment on SR it was 2.88 µM (inactive); with SF-268 it was 6.01 µM (inactive); with SNB-75, 9.75 µM (inactive); in the experiment with UACC-257, 11.9 µM (inactive).
For the compound `Cc1cn(S(=O)(=O)c2ccccc2)c2c(OCc3ccccc3)cc(NS(C)(=O)=O)cc12`, the GI50 was 18.8 µM (inactive) in the experiment on NCI-H522; 31.3 µM (inactive) in the experiment with DU-145; 9.82 µM (inactive) with A549; 39.5 µM (inactive) with Hs-578T; 33 µM (inactive) in the experiment on IGROV-1; 10.3 µM (inactive) in the experiment on COLO 205. For the same compound, the GI50 in the experiment on SK-MEL-2 was 18.1 µM (inactive); with T47D, 4.72 µM (inactive); in the experiment with MDA-MB-231 it was 9.66 µM (inactive); with M14 it was 19.2 µM (inactive); with SF-539, 38.8 µM (inactive); with TK-10, > 85.9 µM (inactive). In addition, the GI50 was 10.6 µM (inactive) with U-251; 4.98 µM (inactive) in the experiment on SR; 14 µM (inactive) in the experiment with SF-268; 22.9 µM (inactive) in the experiment on SNB-75; 10.1 µM (inactive) with UACC-257.
`O=C(O)c1ccc(OCc2nc3cc(C(F)(F)F)ccc3nc2-c2ccccc2)cc1`: the GI50 with NCI-H522 was 74.6 µM (inactive); in the experiment on DU-145 it was 60.1 µM (inactive); in the experiment on A549, 39.2 µM (inactive); in the experiment with Hs-578T, 43.5 µM (inactive); with IGROV-1 it was 56 µM (inactive); in the experiment on COLO 205 it was 19.8 µM (inactive). Moreover, the GI50 is 37.9 µM (inactive) in the experiment on SK-MEL-2; 50.7 µM (inactive) in the experiment with T47D; 56.4 µM (inactive) with MDA-MB-231; 80.4 µM (inactive) in the experiment with M14; 32.1 µM (inactive) with SF-539; 71 µM (inactive) in the experiment on TK-10. Moreover, the GI50 with U-251 was 44.2 µM (inactive); in the experiment with SR, 11.5 µM (inactive); in the experiment with SF-268, 41.8 µM (inactive); with SNB-75, 17.2 µM (inactive); in the experiment on UACC-257, 78.7 µM (inactive).
Take `CC(=O)N1C(C(=O)NNc2ccccc2)CSC1c1ccccc1` (stereo not given): the GI50 is 0.471 µM (active) with NCI-H522; > 100 µM (inactive) in the experiment with DU-145; 71 µM (inactive) in the experiment on A549; > 100 µM (inactive) with Hs-578T; 36.6 µM (inactive) with IGROV-1; 64.9 µM (inactive) in the experiment with COLO 205. The GI50 in the experiment with SK-MEL-2 was > 100 µM (inactive); in the experiment with T47D, 69.7 µM (inactive); in the experiment with MDA-MB-231 it was > 100 µM (inactive); in the experiment with M14, 16.7 µM (inactive); in the experiment on SF-539, 62.8 µM (inactive); with TK-10, > 100 µM (inactive). Besides, the GI50 in the experiment on U-251, in the experiment on SR, with SF-268, in the experiment on SNB-75 and in the experiment with UACC-257 was > 100 µM (inactive) in each case.
